{
  "source": "PubChem BioAssay AID1963447",
  "about": "(Molecular Pharmacology Branch, DTP, NCI, 2024)",
  "tested_on": "885512-296-R-J2-PDC complex spheroid growth, % test/control",
  "assay": "Anticancer human tumor 885512-296-R-J2-PDC patient-derived breast carcinoma cell line growth inhibition [Asc]",
  "conditions": "for pIC50: curve of first compound; for viability, T/C: stronger effect = lower value",
  "how_it_was_run": "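Complex solid-tumor spheroids incorporating human endothelial and mesenchymal stem cells received single agents or combinations over half-log dilution ranges anchored to clinical Cmax.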",
  "note": "pIC50: −log10 of the molar value.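 Note: spheroids exposed to compounds for seven days.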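 Throughout, for viability, T/C: 100% = DMSO vehicle control wells.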",
  "data": [
    {"smiles": "Cn1ncnc1[C@H]1c2n[nH]c(=O)c3cc(F)cc(c23)N[C@@H]1c1ccc(F)cc1", "note": "+ CNC(C)C(=O)NC1CN(S(=O)(=O)c2cccc(S(=O)(=O)N3CCC4CCC(C(=O)NC(c5ccccc5)c5ccccc5)N4C(=O)C(NC(=O)C(C)NC)C3)c2)CCC2CCC(C(=O)NC(c3ccccc3)c3ccccc3)N2C1=O", "values": [
      {"measurement": "pIC50", "setting": "second compound 0.01 µM", "value": 7.58},
      {"measurement": "pIC50", "setting": "second compound 0.0316 µM", "value": 7.75},
      {"measurement": "pIC50", "setting": "second compound 0.1 µM", "value": 7.63},
      {"measurement": "pIC50", "setting": "second compound 0.316 µM", "value": 7.82},
      {"measurement": "pIC50", "setting": "second compound 1 µM", "value": 7.67},
      {"measurement": "viability, T/C", "setting": "second compound 0.01 µM, first compound 0.000316 µM", "value": 86, "unit": "%"},
      {"measurement": "viability, T/C", "setting": "second compound 0.01 µM, first compound 0.001 µM", "value": 71.1, "unit": "%"},
      {"measurement": "viability, T/C", "setting": "second compound 0.01 µM, first compound 0.00316 µM", "value": 73.5, "unit": "%"},
      {"measurement": "viability, T/C", "setting": "second compound 0.01 µM, first compound 0.01 µM", "value": 63.4, "unit": "%"},
      {"measurement": "viability, T/C", "setting": "second compound 0.01 µM, first compound 0.0316 µM", "value": 47.7, "unit": "%"},
      {"measurement": "viability, T/C", "setting": "second compound 0.01 µM, first compound 0.1 µM", "value": 26.2, "unit": "%"},
      {"measurement": "viability, T/C", "setting": "second compound 0.0316 µM, first compound 0.000316 µM", "value": 98.5, "unit": "%"},
      {"measurement": "viability, T/C", "setting": "second compound 0.0316 µM, first compound 0.001 µM", "value": 96.5, "unit": "%"},
      {"measurement": "viability, T/C", "setting": "second compound 0.0316 µM, first compound 0.00316 µM", "value": 92.3, "unit": "%"},
      {"measurement": "viability, T/C", "setting": "second compound 0.0316 µM, first compound 0.01 µM", "value": 60.5, "unit": "%"},
      {"measurement": "viability, T/C", "setting": "second compound 0.0316 µM, first compound 0.0316 µM", "value": 40.1, "unit": "%"},
      {"measurement": "viability, T/C", "setting": "second compound 0.0316 µM, first compound 0.1 µM", "value": 31.2, "unit": "%"},
      {"measurement": "viability, T/C", "setting": "second compound 0.1 µM, first compound 0.000316 µM", "value": 102, "unit": "%"},
      {"measurement": "viability, T/C", "setting": "second compound 0.1 µM, first compound 0.001 µM", "value": 100, "unit": "%"},
      {"measurement": "viability, T/C", "setting": "second compound 0.1 µM, first compound 0.00316 µM", "value": 90.8, "unit": "%"},
      {"measurement": "viability, T/C", "setting": "second compound 0.1 µM, first compound 0.01 µM", "value": 70.5, "unit": "%"},
      {"measurement": "viability, T/C", "setting": "second compound 0.1 µM, first compound 0.0316 µM", "value": 42.9, "unit": "%"},
      {"measurement": "viability, T/C", "setting": "second compound 0.1 µM, first compound 0.1 µM", "value": 22.4, "unit": "%"},
      {"measurement": "viability, T/C", "setting": "second compound 0.316 µM, first compound 0.000316 µM", "value": 98, "unit": "%"},
      {"measurement": "viability, T/C", "setting": "second compound 0.316 µM, first compound 0.001 µM", "value": 100, "unit": "%"},
      {"measurement": "viability, T/C", "setting": "second compound 0.316 µM, first compound 0.00316 µM", "value": 94.6, "unit": "%"},
      {"measurement": "viability, T/C", "setting": "second compound 0.316 µM, first compound 0.01 µM", "value": 56, "unit": "%"},
      {"measurement": "viability, T/C", "setting": "second compound 0.316 µM, first compound 0.0316 µM", "value": 42.4, "unit": "%"},
      {"measurement": "viability, T/C", "setting": "second compound 0.316 µM, first compound 0.1 µM", "value": 27.6, "unit": "%"},
      {"measurement": "viability, T/C", "setting": "second compound 1 µM, first compound 0.000316 µM", "value": 108, "unit": "%"},
      {"measurement": "viability, T/C", "setting": "second compound 1 µM, first compound 0.001 µM", "value": 97.1, "unit": "%"},
      {"measurement": "viability, T/C", "setting": "second compound 1 µM, first compound 0.00316 µM", "value": 98.2, "unit": "%"},
      {"measurement": "viability, T/C", "setting": "second compound 1 µM, first compound 0.01 µM", "value": 65.6, "unit": "%"},
      {"measurement": "viability, T/C", "setting": "second compound 1 µM, first compound 0.0316 µM", "value": 42.5, "unit": "%"},
      {"measurement": "viability, T/C", "setting": "second compound 1 µM, first compound 0.1 µM", "value": 26.2, "unit": "%"}
    ]}
  ]
}
